Drawing on patent US20260174750A1 (Merck Sharp & Dohme LLC, priority 2022, published 2026), this text covers IC50 for 27 molecules.

The target of this assay is T1, human DGAT2 (Homo sapiens, UniProt Q96PD7).
T1 sequence (Q96PD7 1-388): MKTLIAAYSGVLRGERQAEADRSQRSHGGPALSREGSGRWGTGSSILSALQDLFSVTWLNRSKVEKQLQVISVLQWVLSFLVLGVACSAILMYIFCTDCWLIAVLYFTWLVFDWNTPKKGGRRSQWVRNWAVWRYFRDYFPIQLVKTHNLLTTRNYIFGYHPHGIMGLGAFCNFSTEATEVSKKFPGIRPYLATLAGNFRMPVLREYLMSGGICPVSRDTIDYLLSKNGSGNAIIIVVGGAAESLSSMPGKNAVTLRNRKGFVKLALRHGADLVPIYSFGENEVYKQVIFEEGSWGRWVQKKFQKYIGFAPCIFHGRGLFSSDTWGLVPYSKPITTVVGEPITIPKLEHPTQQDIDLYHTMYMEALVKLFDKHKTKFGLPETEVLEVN
Kind of assay: biochemical.
The term IC50 denotes the concentration needed to halve the response being measured. Read a low IC50 as greater potency in that assay. `Cc1cc2nc(C(=O)N[C@H]3CCCC(F)(F)[C@@H]3O)nn2cc1Oc1ncc(Cl)cc1OCC(F)(F)F` [Example 23, 6-[[5-chloro-3-(2,2,2-trifluoroethoxy)-2-pyridyl]oxy]-N-[(1S,2R)-3,3-difluoro-2-hydroxy-cyclohexyl]-7-methyl-[1,2,4]triazolo[1,5-a]pyridine-2-carboxamide] came in with an IC50 of 91 nM.
The figure for `Cc1c(Oc2ncc(F)cc2OCC(F)(F)F)cc(F)c2nc(C(=O)NC3(C)CCS(=O)(=O)CC3)nn12` [Example 30, 8-fluoro-6-[[5-fluoro-3-(2,2,2-trifluoroethoxy)-2-pyridyl]oxy]-5-methyl-N-(4-methyl-1,1-dioxo-thian-4-yl)-[1,2,4]triazolo[1,5-a]pyridine-2-carboxamide] is 19 nM; for `Cc1c(Oc2ncc(F)cc2OCC(C)(F)F)cc(F)c2nc(C(=O)NC3(C)CCS(=O)(=O)CC3)nn12` [Example 32, 6-[[3-(2,2-difluoropropoxy)-5-fluoro-2-pyridyl]oxy]-8-fluoro-5-methyl-N-(4-methyl-1,1-dioxo-thian-4-yl)-[1,2,4]triazolo[1,5-a]pyridine-2-carboxamide] it is 61 nM.
The figure for `Cc1c(Oc2ncc(Cl)cc2OCC(F)(F)F)cc(F)c2nc(C(=O)NC3(C)CCS(=O)(=O)CC3)nn12` [Example 28, 6-[[5-Chloro-3-(2,2,2-trifluoroethoxy)-2-pyridyl]oxy]-8-fluoro-5-methyl-N-(4-methyl-1,1-dioxo-thian-4-yl)-[1,2,4]triazolo[1,5-a]pyridine-2-carboxamide] is 12 nM.
In turn, `Cc1c(Oc2ncc(F)cc2OCC2(F)CC2)ccc2nc(C(=O)NC3(C)CCS(=O)(=O)CC3)nn12` [Example 16, 6-[[5-fluoro-3-[(1-fluorocyclopropyl)methoxy]-2-pyridyl]oxy]-5-methyl-N-(4-methyl-1,1-dioxo-thian-4-yl)-[1,2,4]triazolo[1,5-a]pyridine-2-carboxamide] displayed an IC50 of 25 nM.
Consider `CC1(NC(=O)c2nc3c(F)cc(Oc4ncc(Cl)cc4OCC(F)(F)F)cn3n2)CCS(=O)(=O)CC1` [Example 26, 6-((5-Chloro-3-(2,2,2-trifluoroethoxy)pyridin-2-yl)oxy)-8-fluoro-N-(4-methyl-1,1-dioxidotetrahydro-2H-thiopyran-4-yl)-[1,2,4]triazolo[1,5-a]pyridine-2-carboxamide], for which 9.5 nM corresponded to half-maximal inhibition (IC50).
With `CC1(NC(=O)c2nc3ccc(Oc4ncccc4OCC(F)(F)F)cn3n2)CCS(=O)(=O)CC1` [Example 7, N-(4-methyl-1,1-dioxo-thian-4-yl)-6-[[3-(2,2,2-trifluoroethoxy)-2-pyridyl]oxy]-[1,2,4]triazolo[1,5-a]pyridine-2-carboxamide] the figure was 126 nM.
As to `Cc1cc2nc(C(=O)NC3(C)CCS(=O)(=O)CC3)nn2c(C)c1Oc1ncc(Cl)cc1OCC(F)(F)F` [Example 24, 6-((5-Chloro-3-(2,2,2-trifluoroethoxy)pyridin-2-yl)oxy)-5,7-dimethyl-N-(4-methyl-1,1-dioxidotetrahydro-2H-thiopyran-4-yl)-[1,2,4]triazolo[1,5-a]pyridine-2-carboxamide], the IC50 came to 181 nM.
In turn, `Cc1c(Oc2ncc(Cl)cc2OCC(F)(F)F)cc(F)c2nc(C(=O)NC3(C)CS(=O)(=O)C3)nn12` [Example 29, 6-[[5-chloro-3-(2,2,2-trifluoroethoxy)-2-pyridyl]oxy]-8-fluoro-5-methyl-N-(3-methyl-1,1-dioxo-thietan-3-yl)-[1,2,4]triazolo[1,5-a]pyridine-2-carboxamide] came in with an IC50 of 383 nM.
`Cc1cc2nc(C(=O)NC3(C)CCS(=O)(=O)CC3)nn2c(C)c1Oc1nccnc1OCC(F)(F)F` [Example 25, 5,7-dimethyl-N-(4-methyl-1,1-dioxo-thian-4-yl)-6-[3-(2,2,2-trifluoroethoxy)pyrazin-2-yl]oxy-[1,2,4]triazolo[1,5-a]pyridine-2-carboxamide] displayed an IC50 of 91 nM. This IC50 is about 4.2-fold lower than that of the molecule before.
As to `Cc1c(Oc2ncc(F)cc2OCC(C)(F)F)ccc2nc(C(=O)NC3(C)CCS(=O)(=O)CC3)nn12` [Example 19, 6-[[3-(2,2-difluoropropoxy)-5-fluoro-2-pyridyl]oxy]-5-methyl-N-(4-methyl-1,1-dioxo-thian-4-yl)-[1,2,4]triazolo[1,5-a]pyridine-2-carboxamide], inhibition was half-maximal at 210 nM (IC50).
With `Cc1c(Oc2ncc(Cl)cc2OCC(C)(F)F)cc(F)c2nc(C(=O)NC3(C)CCS(=O)(=O)CC3)nn12` [Example 31, 6-[[5-chloro-3-(2,2-difluoropropoxy)-2-pyridyl]oxy]-8-fluoro-5-methyl-N-(4-methyl-1,1-dioxo-thian-4-yl)-[1,2,4]triazolo[1,5-a]pyridine-2-carboxamide] the figure was 30 nM.
With `Cc1c(OCc2ncc(Cl)cc2OCC(F)F)ccc2nc(C(=O)NC3(C)CCS(=O)(=O)CC3)nn12` [Example 36, 6-((5-chloro-3-(2,2-difluoroethoxy)pyridin-2-yl)methoxy)-5-methyl-N-(4-methyl-1,1-dioxidotetrahydro-2H-thiopyran-4-yl)-[1,2,4]triazolo[1,5-a]pyridine-2-carboxamide], the IC50 was 336 nM.
With `CCOc1cccnc1Oc1ccc2nc(C(=O)N[C@H]3CCOC3)nn2c1` [Example 4, 6-[(3-ethoxy-2-pyridyl)oxy]-N-[(3S)-tetrahydrofuran-3-yl]-[1,2,4]triazolo[1,5-a]pyridine-2-carboxamide] the figure was 384 nM.
Turning to `Cc1c(OCc2ncc(F)cc2OCC(F)(F)F)ccc2nc(C(=O)NC3(C)CCS(=O)(=O)CC3)nn12` [Example 35, 6-((5-Fluoro-3-(2,2,2-trifluoroethoxy)pyridin-2-yl)methoxy)-5-methyl-N-(4-methyl-1,1-dioxidotetrahydro-2H-thiopyran-4-yl)-[1,2,4]triazolo[1,5-a]pyridine-2-carboxamide], the IC50 came to 1680 nM.
The molecule `CCOc1cccnc1Oc1ccc2nc(C(=O)N[C@H]3CC[C@@](OC)(C(F)(F)F)CC3)nn2c1` [Example 6, 6-[(3-ethoxy-2-pyridyl)oxy]-N-[4-methoxy-4-(trifluoromethyl)cyclohexyl]-[1,2,4]triazolo[1,5-a]pyridine-2-carboxamide] showed an IC50 of 149 nM.
With `CC1(NC(=O)c2nc3ccc(Oc4ncccc4OCC(F)(F)F)cn3n2)CC(F)(F)C1` [Example 9] the figure was 8250 nM; with `O=C(N[C@H]1CCCC(F)(F)[C@@H]1O)c1nc2ccc(Oc3ncc(Cl)cc3OCC(F)(F)F)cn2n1` [Example 11], 60 nM; with `CCOc1cccnc1Oc1ccc2nc(C(=O)N[C@@H]3CCOC3)nn2c1` [Example 5, 6-[(3-ethoxy-2-pyridyl)oxy]-N-[(3R)-tetrahydrofuran-3-yl]-[1,2,4]triazolo[1,5-a]pyridine-2-carboxamide], 2440 nM.
As to `Cc1c(Oc2ncc(Cl)cc2OCC(F)(F)F)ccc2nc(C(=O)N[C@H]3CCCC(F)(F)[C@@H]3O)nn12` [Example 21, 6-[[5-chloro-3-(2,2,2-trifluoroethoxy)-2-pyridyl]oxy]-N-[(1S,2R)-3,3-difluoro-2-hydroxy-cyclohexyl]-5-methyl-[1,2,4]triazolo[1,5-a]pyridine-2-carboxamide], the IC50 was found to be 581 nM.
On to `CCOc1cccnc1Oc1ccc2nc(C(=O)NC3(C)CS(=O)(=O)C3)nn2c1` [Example 3, 6-[(3-ethoxy-2-pyridyl)oxy]-N-(3-methyl-1,1-dioxo-thietan-3-yl)-[1,2,4]triazolo[1,5-a]pyridine-2-carboxamide], for which the IC50 was 103 nM. This IC50 is about 5.6-fold lower than that of the molecule before.
`Cc1c(Oc2ncc(Cl)cc2OCC2(F)CC2)ccc2nc(C(=O)NC3(C)CCS(=O)(=O)CC3)nn12` [Example 15, 6-[[5-chloro-3-[(1-fluorocyclopropyl)methoxy]-2-pyridyl]oxy]-5-methyl-N-(4-methyl-1,1-dioxo-thian-4-yl)-[1,2,4]triazolo[1,5-a]pyridine-2-carboxamide]: it took 11 nM to reach half-maximal inhibition (IC50).
Regarding `Cc1c(Oc2nccnc2OCC(F)F)cc(F)c2nc(C(=O)NC3(C)CCS(=O)(=O)CC3)nn12` [Example 34, 6-[3-(2,2-difluoroethoxy)pyrazin-2-yl]oxy-8-fluoro-5-methyl-N-(4-methyl-1,1-dioxo-thian-4-yl)-[1,2,4]triazolo[1,5-a]pyridine-2-carboxamide], the midpoint of inhibition, the IC50, lay at 31 nM. This IC50 lies about 2.8-fold higher than the previous one.
For the molecule `CCOc1cccnc1Oc1ccc2nc(C(=O)NC3(C)CCS(=O)(=O)CC3)nn2c1` [Example 2, 6-[(3-ethoxy-2-pyridyl)oxy]-N-(4-methyl-1,1-dioxo-thian-4-yl)-[1,2,4]triazolo[1,5-a]pyridine-2-carboxamide], the IC50 was found to be 17 nM.
As for `Cc1c(Oc2ncc(Cl)cc2OCC(C)(F)F)ccc2nc(C(=O)NC3(C)CCS(=O)(=O)CC3)nn12` [Example 18], the IC50 turned out to be 50 nM.
The molecule `CC1(NC(=O)c2nc3ccc(Oc4ncccc4OCC(F)(F)F)cn3n2)CCC(F)(F)CC1` [Example 8, N-(4,4-difluoro-1-methyl-cyclohexyl)-6-[[3-(2,2,2-trifluoroethoxy)-2-pyridyl]oxy]-[1,2,4]triazolo[1,5-a]pyridine-2-carboxamide] showed an IC50 of 177 nM.
Molecule `CC1(NC(=O)c2nc3ccc(Oc4ncc(Cl)cc4OCC(F)(F)F)cn3n2)CS(=O)(=O)C1` [Example 10, 6-[[5-chloro-3-(2,2,2-trifluoroethoxy)-2-pyridyl]oxy]-N-(3-methyl-1,1-dioxo-thietan-3-yl)-[1,2,4]triazolo[1,5-a]pyridine-2-carboxamide] came in with an IC50 of 151 nM. This IC50 and that of the molecule before are within 1.5-fold of each other.
